Source: article PMC9607578, “Chemopreventive Effect on Human Colon Adenocarcinoma Cells of Styrylquinolines: Synthesis, Cytotoxicity, Proapoptotic Effect and Molecular Docking Analysis” (Molecules, 2022)
“Also recorded” adds a separate entry of the source. Read-outs that look alike come from different tables or passages of the source.

Key:
SW620 cells [1] = experiment: Cytotoxic activity, sulforhodamine B (SRB) staining; type: cell-based, human; conditions: for IC50: Homo sapiens, read-out: SW620 IC50
Protocol: (§1) For the biological assays, the human colon adenocarcinoma cell line SW480 and its metastatic derivative SW620 were used. Additionally, the nonmalignant cell line HaCaT was used to find the selectivity index of the compounds. All cell lines were obtained by the Colombian Plant Chemistry Group of the Faculty of Exact and Natural Sciences of the University of Antioquia (Medellín, Colombia) from the European Collection of Authenticated Cell Cultures (ECACC, Salisbury, UK). Cells were cultured in a DMEM medium with 4500 mg/L of glucose and L-glutamine (Sigma-Aldrich, Burlington, MA, USA), supplemented with 10% heat-inactivated (56 °C) horse serum (Gibco, Waltham, MA, USA), 1% penicillin/streptomycin (Sigma-Aldrich, Burlington, MA, USA), and 1% non-essential amino acids (Sigma-Aldrich, Burlington, MA, USA). For all experiments, horse serum was reduced to 3%, and the medium was supplemented with […] of transferrin, 5 ng/mL of selenium, and […] of insulin (ITS; Sigma-Aldrich, Burlington, MA, USA). All cell lines were incubated at 37 °C in a 5% CO2 atmosphere. Additionally, cell cultures were constantly monitored with PCR (Sigma-Aldrich, Burlington, MA, USA) for Mycoplasma spp. to control contamination with this agent.
(§2) To evaluate the effect of styrylquinolines on the viability of the SW480, SW620, and HaCaT cell lines, sulforhodamine B (SRB) staining was used. SRB is a colorimetric assay that indirectly estimates the number of living cells based on the ability of SRB to bind to protein components of adherent cells. Briefly, the malignant cell lines were seeded at a final density of 2.0 × 10^4 cells/well, and the nonmalignant cell line was seeded at a final density of 1.5 × 10^4 cells/well in 96-well tissue culture plates. All cell lines were incubated at 37 °C in a 5% CO2 atmosphere for 24 h to enable cell adherence, and they were then treated for 24 and 48 h with increasing concentrations (0.01–160 µM) of the styrylquinolines or their respective precursors (8-hydroxyquinoline and resveratrol), as well as 1% DMSO (negative control) and 5-FU (standard drug). After treatment, cells were fixed with trichloroacetic acid (50% v/v; PanReac AppliChem, Barcelona, Spain) for a period of one hour at 4 °C. After this, the cells were incubated for 30 min at room temperature with 0.4% (w/v) SRB (Sigma-Aldrich, Burlington, MA, USA). To remove unbound SRB, the cells were washed with 1% acetic acid, and the plates were allowed to dry at room temperature. Protein-bound SRB was solubilized with 10 mM Tris-base (Amresco, Cleveland, OH, USA) for 30 min at room temperature under constant agitation, and absorbance was measured at 490 nm in a microplate reader (Bio-Rad iMark^TM, Hercules, CA, USA). Finally, the concentration of the compound that inhibits 50% of cell growth (IC50) and the selectivity index (SI) were determined.

SW480 cells [2] = experiment: as above; type: cell-based, human; conditions: for IC50: Homo sapiens, read-out: SW480 IC50
Protocol: as §1, §2

SW620 cells [3] = experiment: Antiproliferative activity, SRB staining, 0-8 days; type: cell-based, human
Protocol: (§3) The antiproliferative activity of styrylquinolines with higher selective cytotoxicity toward malignant cells was also tested with SRB staining. Briefly, cells were seeded to a final density of 2.5 × 10^3 cells/well in 96-well tissue culture plates and incubated under the same conditions described for cytotoxic activity. After 24 h, the cells were treated with increasing concentrations (5–80 µM) of the selected hybrids or with 1% DMSO (negative control) for 0, 2, 4, 6, and 8 days. Culture media were replaced every 48 h to guarantee the basic nutrients required for cell growth and viability, maintaining the concentrations of each of the selected hybrids. After each incubation time, cells were fixed and stained, and the absorbance was measured as described above.

SW480 cells [4] = experiment: Antiproliferative activity, SRB staining, 0-8 days; type: cell-based, human
Protocol: as §3

SW620 cells [5] = experiment: Apoptosis, APO-DIRECT kit (FITC-dUTP/PI), flow cytometry; type: cell-based, human; conditions: treated at IC50
Protocol: To assess whether the chosen styrylquinolines generated apoptosis in malignant cells, the APO-DIRECT^TM kit (Chemicon^R International, Temecula, CA, USA) was used following the manufacturer’s instructions. Briefly, the malignant cells were seeded at a final density of 1.1 × 10^6 cells in a T75 culture flask and incubated for 24 h at 37 °C in a 5% CO2 atmosphere. […] After incubation time, cells were fixed and stained with FITC-dUTP and propidium iodide (PI), respectively, according to the manufacturer’s protocol. Analysis was conducted via flow cytometry (LSR Fortessa; BD Biosciences, San Jose, CA, USA) and FlowJo 7.6 software. All PI-FITC-positive cells were considered to be apoptotic cells.

SW620 cells [6] = experiment: Apoptosis markers (Bcl-2, active caspase 3, cleaved PARP), human apoptosis panel, MAGPIX; type: cell-based; conditions: vs negative control
Protocol: (§4) To assess whether styrylquinolines had any effect on the expression of immunological markers associated with the inflammatory process, malignant cells were seeded at a final density of 2.5 × 10^5 cells/well in 6-well tissue culture plates, and cell adherence was allowed. […] After the incubation time, the supernatant was collected, and the levels of the following analytes were measured using the ProcartaPlex Human Th1/Th2/Th9/Th17/Th22/Treg 18-plex panel (Invitrogen) according to the manufacturer’s protocol: GM-CSF, IFN-γ, TNF-α, IL-10, IL-12p70, IL-13, IL-17A, IL-18, IL-1β, IL-2, IL-21, IL-22, IL-23, IL-27, IL-4, IL-5, IL-6, and IL-9. Furthermore, to evaluate the participation of these hybrids in the production of some markers associated with the apoptosis process (Bcl-2, active Caspase-3 and cleaved PARP) in colorectal cancer cells, the human apoptosis panel (Invitrogen, Waltham, Massachusetts, United States) was used following the manufacturer’s instructions. To normalize the concentration of each marker, total proteins were quantified using the PierceTM BCA kit (Thermo Fisher Scientific, Waltham, MA, USA).
(§5) In both cases, the reading was performed in the MAGPIX marker multiplex analyzer (Luminex XMAP, Austin, TX, USA). The concentration of each molecule was extrapolated from the calibration curve (individual for each marker) obtained from the standards provided by the kit.

SW620 cells [7] = experiment: Immunological markers, ProcartaPlex 18-plex panel, MAGPIX; type: cell-based, human; conditions: at IC50
Protocol: as §4, §5

SW480 cells [8] = experiment: as above; type: cell-based, human; conditions: at IC50
Protocol: as §4, §5

HaCaT cells = experiment: Cytotoxic activity, sulforhodamine B (SRB) staining; type: cell-based; conditions: Homo sapiens, read-out: HaCaT IC50
Protocol: as §1, §2

[9] = SW-620, 24 h treatment, mean ± SE
[10] = SW-620, 48 h treatment, mean ± SE
[11] = SW480, 24 h treatment, mean ± SE
[12] = SW480, 48 h treatment, mean ± SE

Row | SMILES | SI (IC50 HaCaT / IC50 SW620) (SW620 cells [1]; 24 h treatment) | SI (IC50 HaCaT / IC50 SW620) (SW620 cells [1]; 48 h treatment) | IC50 (SW620 cells [1]; [9]) | IC50 (SW620 cells [1]; [10]) | SI (IC50 HaCaT / IC50 SW480) (SW480 cells [2]; 24 h treatment) | SI (IC50 HaCaT / IC50 SW480) (SW480 cells [2]; 48 h treatment) | IC50 (SW480 cells [2]; [11]) | IC50 (SW480 cells [2]; [12]) | IC50 (HaCaT cells; 24 h treatment, mean ± SE) | IC50 (HaCaT cells; 48 h treatment, mean ± SE) | other results
1 | Oc1ccc(/C=C/c2ccc3cccc(O)c3n2)cc1 [Compound 3a] | 3.8 | 2.9 | 60.5 ± 2.9 µM | 16.6 ± 2.2 µM | 3.4 | 1.8 | 67.7 ± 2.8 µM | 26.5 ± 4 µM | 232 ± 29.2 µM | 47.9 ± 3.3 µM | Concentration required to significantly decrease cell viability percentage from day 2 post-treatment (SW620 cells [3]; SW620, day 2): 5 µM; Concentration from which cell viability percentage is decreased to 0% / high percentage of reduction (SW620 cells [3]; SW620, treatment up to 8 days): 10 µM; Concentration required to significantly decrease cell viability percentage from day 2 post-treatment (SW480 cells [4]; SW480, day 2): 20 µM; Concentration from which cell viability percentage is decreased to 0% / high percentage of reduction (SW480 cells [4]; SW480, treatment up to 8 days): 10 µM; Apoptotic cells (cell death by apoptosis) (SW620 cells [5]; SW620, 24 h): 6.8%; Apoptotic cells (cell death by apoptosis) (SW620 cells [5]; SW620, 48 h): 21.5%; Levels of Bcl-2 and cleaved PARP (SW620 cells [6]; SW620, 24 and 48 h): did not show significant differences; Levels of active caspase 3 (SW620 cells [6]; SW620, 24 and 48 h post-treatment): significantly increased; Levels of immunological markers (SW620 cells [7]; SW620, 24 h post-treatment): significant increase in the levels of GM-CSF, IL-13, IL-18, IL-4, TNF alpha, IL-22, and IL-9; Levels of immunological markers (SW620 cells [7]; SW620, 48 h post-treatment): levels of IL-4 and IL-10 were significantly increased; Levels of immunological markers (SW480 cells [8]; SW480, 24 h post-treatment): significant increases in the levels of GM-CSF, IFN gamma, IL-12p70, IL-4, IL-6, IL-10, and IL-17A; Levels of immunological markers (SW480 cells [8]; SW480, 48 h post-treatment): significant increases in GM-CSF, IFN gamma, IL-4, IL-6, IL-10 and IL-17A levels; also recorded: significant increases in the levels of IL-1 beta, IL-13, IL-18, IL-2, TNF alpha, IL-22, IL-27, and IL-9
2 | Oc1cccc(/C=C/c2ccc3cccc(O)c3n2)c1O [Compound 3b] | 1.2 | 3.4 | 49.1 ± 4.6 µM | 9.7 ± 2 µM | 0.8 | 0.9 | 72.6 ± 11 µM | 39 ± 3.6 µM | 57.2 ± 6.3 µM | 33.5 ± 4.9 µM | 
3 | Oc1ccc(/C=C/c2ccc3cccc(O)c3n2)c(O)c1 [Compound 3c] | 1.8 | 1.9 | 62 ± 4 µM | 20.7 ± 3.1 µM | 3.0 | 1.0 | 37.1 ± 3.8 µM | 38.4 ± 3.8 µM | 110 ± 12.7 µM | 38.4 ± 6.2 µM | 
4 | Oc1ccc(CCc2ccc3cccc(O)c3n2)cc1 [Compound 4a, 2-(4-hydroxyphenethyl)quinolin-8-ol] | 1.3 | 2.4 | 51 ± 5.6 µM | 28.9 ± 1.2 µM | 0.6 | 1.1 | 117 ± 5.3 µM | 63.2 ± 7.1 µM | 65.1 ± 8.4 µM | 69.7 ± 3 µM | 
5 | COc1cc(CCc2ccc3cccc(O)c3n2)ccc1O [Compound 4b, 2-(4-hydroxy-3-methoxyphenethyl)quinolin-8-ol] | 1.9 | 2.9 | 58.8 ± 5.5 µM | 18.6 ± 2 µM | 1.2 | 1.2 | 93.4 ± 16.6 µM | 43.2 ± 2 µM | 109 ± 8.1 µM | 53.6 ± 2.2 µM | 
6 | O=c1[nH]cc(F)c(=O)[nH]1 [Compound 5-FU, 5-Fluorouracil, reference compound] |  | 0.1 | > 2000 µM | 296 ± 39.7 µM | 2.0 |  | > 2000 µM | 748 ± 158 µM | > 2000 µM | 38.8 ± 7.2 µM | 
7 | Oc1cccc2cccnc12 [Compound 8-HQ, 8-hydroxyquinoline, reference compound] | 1.6 | 1.7 |  |  | 1.0 | 1.6 |  |  |  |  | IC50 (SW620 cells [1]; SW-620, 24 h): 55.3 ± 3.6 µM; IC50 (SW620 cells [1]; SW-620, 48 h): 36.3 ± 4.8 µM; IC50 (SW480 cells [2]; SW480, 24 h): 89.6 ± 11.8 µM; IC50 (SW480 cells [2]; SW480, 48 h): 38.8 ± 3.2 µM; IC50 (HaCaT cells; 24 h): 87.1 ± 9.4 µM; IC50 (HaCaT cells; 48 h): 61.6 ± 4.8 µM
8 | Oc1ccc(/C=C/c2cc(O)cc(O)c2)cc1 [Resveratrol, resveratrol, reference compound] | 1.1 | 0.8 | 169 ± 3.9 µM | 125 ± 4.6 µM | 0.8 | 0.7 | 217 ± 12.8 µM | 136 ± 9.1 µM | 180 ± 7.2 µM | 98.2 ± 7 µM | 
